Experiments:
2008 cells = assay: Colony formation (clonogenic) assay, cisplatin sensitivity; assay type: cell-based, human; settings: parental 2008 cells, continuous drug exposure
Procedure: (§1) Cells and culture. Six human ovarian carcinoma cell lines (2008, A2780, HEY, IGROV-1, KF28 and UCI 107) were used in this study. Sublines stably resistant to DDP (2008/C13*5.25, A2780/CP70, HEY C2, IGROV-1/CP, KFr13 and UCI CPR) had been prepared from each parental line by repeated in vitro exposure to DDP as previously described (Mishima et al., 2002). All cell lines were maintained in drug-free RPMI-1640 medium (GIBCO, Inc.) with 10% fetal calf serum (GIBCO, Inc.) at 37° C. in a humidified atmosphere containing 5% CO2. The degree of resistance of each subline was determined at the time RNA was harvested using a clonogenic assay with continuous drug exposure as previously described (Mishima et al., 2002).
(§2) Cisplatin sensitivity. Colony formation assays were used to determine the sensitivity of the 6 pairs of DDP-sensitive and resistant cell lines to the cytotoxic effect of DDP.

2008/C13*5.25 cells = assay: as above; assay type: cell-based, human
Procedure: as §1, §2

A2780 cells = assay: as above; assay type: cell-based, human; settings: parental A2780 cells, continuous drug exposure
Procedure: as §1, §2

A2780/CP70 cells = assay: as above; assay type: cell-based, human
Procedure: as §1, §2

HEY C2 cells = assay: as above; assay type: cell-based, human
Procedure: as §1, §2

HEY cells = assay: as above; assay type: cell-based, human; settings: parental HEY cells, continuous drug exposure
Procedure: as §1, §2

IGROV-1 cells = assay: as above; assay type: cell-based, human; settings: parental IGROV-1 cells, continuous drug exposure
Procedure: as §1, §2

IGROV-1/CP cells = assay: as above; assay type: cell-based, human
Procedure: as §1, §2

KF28 cells = assay: as above; assay type: cell-based, human; settings: parental KF28 cells, continuous drug exposure
Procedure: as §1, §2

KFr13 cells = assay: as above; assay type: cell-based, human
Procedure: as §1, §2

UCI 107 cells = assay: as above; assay type: cell-based, human; settings: parental UCI 107 cells, continuous drug exposure
Procedure: as §1, §2

UCI CPR cells = assay: as above; assay type: cell-based, human
Procedure: as §1, §2

[1] = test system: cells transfected with a metallothionein gene; settings: cited from earlier work
[2] = test system: cells transfected with the c-myc gene; settings: cited from earlier work

N.N.[Cl][Pt][Cl] [Cisplatin, cis-diamminedichloroplatinum]
IC50 (2008 cells): 0.7 µM | Fold-resistant (ratio of IC50 values) (2008/C13*5.25 cells; 2008/C13*5.25 vs 2008): 1.6 fold | IC50 (2008/C13*5.25 cells; resistant 2008/C13*5.25 cells, colony formation, continuous drug exposure): 1.1 µM | IC50 (A2780 cells): 0.21 µM | Fold-resistant (ratio of IC50 values) (A2780/CP70 cells; A2780/CP70 vs A2780): 11.9 fold | IC50 (A2780/CP70 cells; resistant A2780/CP70 cells, colony formation, continuous drug exposure): 2.5 µM | Fold-resistant (ratio of IC50 values) (HEY C2 cells; HEY C2 vs HEY): 6.1 fold | IC50 (HEY C2 cells; resistant HEY C2 cells, colony formation, continuous drug exposure): 4.6 µM | IC50 (HEY cells): 0.76 µM | IC50 (IGROV-1 cells): 0.3 µM | Fold-resistant (ratio of IC50 values) (IGROV-1/CP cells; IGROV-1/CP vs IGROV-1): 3.6 fold | IC50 (IGROV-1/CP cells; resistant IGROV-1/CP cells, colony formation, continuous drug exposure): 1.08 µM | IC50 (KF28 cells): 0.18 µM | Fold-resistant (ratio of IC50 values) (KFr13 cells; KFr13 vs KF28): 2.2 fold | IC50 (KFr13 cells; resistant KFr13 cells, colony formation, continuous drug exposure): 0.4 µM | IC50 (UCI 107 cells): 1 µM | Fold-resistant (ratio of IC50 values) (UCI CPR cells; UCI CPR vs UCI 107): 8 fold | IC50 (UCI CPR cells; resistant UCI CPR cells, colony formation, continuous drug exposure): 8 µM | level of increased resistance [1]: less than 5 fold | level of increased resistance [2]: less than 3 fold

Reference: patent US20060019268A1, “Molecular markers of cisplatin resistance in cancer and uses thereof” (Research Development Foundation, priority 2004, published 2006)
